{"source": "ChEMBL document CHEMBL1153327", "about": "“M3 muscarinic acetylcholine receptor antagonists: SAR and optimization of bi-aryl amines” (Bioorg Med Chem Lett, 2009)", "note": "Calls of active or inactive are those of the source. The rule behind the calls is not given here.", "data": [{"target": "T1, Muscarinic acetylcholine receptor M3 (Homo sapiens, UniProt P20309)", "T1 sequence (P20309 whole entry)": "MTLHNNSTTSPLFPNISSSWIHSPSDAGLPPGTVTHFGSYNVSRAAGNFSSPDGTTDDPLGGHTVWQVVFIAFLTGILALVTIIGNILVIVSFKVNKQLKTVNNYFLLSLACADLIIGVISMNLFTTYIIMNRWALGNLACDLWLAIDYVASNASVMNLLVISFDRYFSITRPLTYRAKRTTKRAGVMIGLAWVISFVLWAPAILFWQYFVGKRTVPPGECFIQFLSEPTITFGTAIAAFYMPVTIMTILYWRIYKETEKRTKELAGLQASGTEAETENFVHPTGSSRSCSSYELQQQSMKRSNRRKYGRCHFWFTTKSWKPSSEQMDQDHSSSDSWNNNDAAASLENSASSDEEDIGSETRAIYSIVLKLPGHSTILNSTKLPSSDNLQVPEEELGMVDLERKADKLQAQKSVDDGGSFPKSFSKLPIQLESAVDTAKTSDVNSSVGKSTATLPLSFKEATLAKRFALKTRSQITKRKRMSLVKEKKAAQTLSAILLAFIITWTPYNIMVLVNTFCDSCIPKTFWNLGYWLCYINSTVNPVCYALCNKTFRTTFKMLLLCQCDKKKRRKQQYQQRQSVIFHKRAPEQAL", "assay": "Antagonist activity at human recombinant muscarinic M3 receptor expressed in CHO cells assessed as inhibition of acetylcholine-induced calcium mobilization by FLIPR based single concentration kinetic assay", "assay_type": "functional, cell-based", "conditions": "read-out: pA2 (converted)", "units": {"Kb": "nM"}, "values": [{"smiles": "C[C@H]1CN(Cc2cccc(-c3cc(CNC(=O)c4cccc(CN(C)CCCN(C)C)c4)ccc3F)c2)CCN1", "Kb": 0.2}, {"smiles": "C[C@H]1CN(Cc2cccc(-c3cc(CNC(=O)c4cccc(CN5CCCN(C)CC5)c4)ccc3F)c2)CCN1", "Kb": 0.251}, {"smiles": "C[C@H]1CN(Cc2cccc(-c3cc(CNC(=O)c4cccc(CN5CCN(C=O)CC5)c4)ccc3F)c2)CCN1", "Kb": 0.0794}, {"smiles": "C[C@H]1CN(Cc2cccc(-c3cc(CNC(=O)c4cccc(CN5CCOCC5)c4)ccc3F)c2)CCN1", "Kb": 0.126}, {"smiles": "CCC[N+]1(C)CCN(Cc2cccc(C(=O)NCc3ccc(F)c(-c4cccc(CN5CCN[C@@H](C)C5)c4)c3)c2)CC1", "Kb": 0.1}, {"smiles": "C[C@H]1CN(Cc2cccc(-c3cc(CNC(=O)c4cccc(CN5CCN(C)CC5)c4)ccc3F)c2)CCN1", "Kb": 0.0316}, {"smiles": "C[C@H]1CN(Cc2cccc(-c3cc(CNC(=O)c4cccc(CN(C)C)c4)ccc3F)c2)CCN1", "Kb": 3.16}, {"smiles": "C[C@H]1CN(Cc2cccc(-c3cc(CNC(=O)c4cccc(C[N+]5(C)CCNCC5)c4)ccc3F)c2)CCN1", "Kb": 3.16}, {"smiles": "C[C@H]1CN(Cc2cccc(-c3cc(CNC(=O)c4cccc(CN5CC[N+](C)(Cc6ccccc6)CC5)c4)ccc3F)c2)CCN1", "Kb": 0.0794}, {"smiles": "C[C@H]1CN(Cc2cccc(-c3cc(CNC(=O)c4cccc(CN5CCN(CCCO)CC5)c4)ccc3F)c2)CCN1", "Kb": 0.0631}, {"smiles": "C[C@H]1CN(Cc2cccc(-c3cc(CNC(=O)c4cccc(CN5CC[N+](C)(C)CC5)c4)ccc3F)c2)CCN1.[I-]", "Kb": 0.158}, {"smiles": "C[C@H]1CN(Cc2cccc(-c3cc(CNC(=O)c4cccc(CN5CC[N+]6(CCCCC6)CC5)c4)ccc3F)c2)CCN1", "Kb": 0.126}, {"smiles": "C[C@H]1CN(Cc2cccc(-c3cc(CNC(=O)c4cccc(CN5CCCCC5)c4)ccc3F)c2)CCN1", "Kb": 0.631}]}, {"test_system": "not listed separately", "assay": "Permeability across artificial phospholipid membrane at pH 7.05 by HPLC", "assay_type": "ADME", "conditions": "not told, read-out: permeability", "units": {"Papp": "×10⁻⁶ cm/s"}, "values": [{"smiles": "C[C@H]1CN(Cc2cccc(-c3cc(CNC(=O)c4cccc(CN5CC[N+](C)(C)CC5)c4)ccc3F)c2)CCN1.[I-]", "Papp": "< 0.3"}]}, {"test_system": "Mus musculus", "assay": "Inhibition of methacholine-induced bronchoconstriction in intranasally dosed BALB/c mouse assessed as enhanced pause pretreated before methacholine challenge", "assay_type": "functional, organism-based", "conditions": "not given", "values": [{"smiles": "C[C@H]1CN(Cc2cccc(-c3cc(CNC(=O)c4cccc(CC5CCNCC5)c4)ccc3F)c2)CCN1", "inhibition": "Active"}]}, {"target": "T2, Muscarinic acetylcholine receptor M1 (Homo sapiens, UniProt P11229)", "T2 sequence (P11229 whole entry)": "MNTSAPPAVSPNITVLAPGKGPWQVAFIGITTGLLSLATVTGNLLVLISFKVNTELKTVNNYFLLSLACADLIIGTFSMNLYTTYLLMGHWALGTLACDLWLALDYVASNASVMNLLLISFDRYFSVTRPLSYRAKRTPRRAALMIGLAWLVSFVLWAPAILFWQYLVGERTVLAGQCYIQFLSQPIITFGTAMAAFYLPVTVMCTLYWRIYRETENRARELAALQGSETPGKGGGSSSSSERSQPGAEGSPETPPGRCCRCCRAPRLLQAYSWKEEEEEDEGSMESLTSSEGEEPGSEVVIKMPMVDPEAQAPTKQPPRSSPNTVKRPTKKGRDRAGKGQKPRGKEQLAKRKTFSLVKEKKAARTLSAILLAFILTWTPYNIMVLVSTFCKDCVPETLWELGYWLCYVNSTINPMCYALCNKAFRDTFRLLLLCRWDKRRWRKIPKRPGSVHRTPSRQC", "assay": "Antagonist activity at human recombinant muscarinic M1 receptor expressed in CHO cells assessed as inhibition of acetylcholine-induced calcium mobilization by FLIPR assay", "assay_type": "functional, cell-based", "conditions": "read-out: pA2 (converted)", "units": {"Kb": "nM"}, "values": [{"smiles": "C[C@H]1CN(Cc2cccc(-c3cc(CNC(=O)c4cccc(CC5CCNCC5)c4)ccc3F)c2)CCN1", "Kb": 0.2}]}, {"target": "T1, Muscarinic acetylcholine receptor M3", "assay": "Antagonist activity at human recombinant muscarinic M3 receptor expressed in CHO cells assessed as inhibition of acetylcholine-induced calcium mobilization by FLIPR assay", "assay_type": "functional, cell-based", "conditions": "not given", "units": {"IC50": "nM"}, "values": [{"smiles": "O=C(NCc1cccc(-c2cccc(CN3CCCNCC3)c2)c1)c1ccc2c(c1)OCO2", "IC50": 316}, {"smiles": "CN1CCCN(Cc2cccc(-c3cccc(CNC(=O)c4ccc5c(c4)OCO5)c3)c2)CC1", "IC50": 631}, {"smiles": "O=C(NCc1cccc(-c2cccc(CN3CCCCC3)c2)c1)c1ccc2c(c1)OCO2", "IC50": 6310}, {"smiles": "CC(=O)c1cccc(C(=O)NCc2cccc(-c3cccc(CN4CCNCC4)c3)c2)c1", "IC50": 10}, {"smiles": "CS(=O)(=O)c1cccc(C(=O)NCc2cccc(-c3cccc(CN4CCNCC4)c3)c2)c1", "IC50": 20}, {"smiles": "CN1CCN(Cc2cccc(C(=O)NCc3cccc(-c4cccc(CN5CCNCC5)c4)c3)c2)CC1", "IC50": 3.98}, {"smiles": "COc1ccc(C(=O)NCc2cccc(-c3cccc(CN4CCNCC4)c3)c2)cc1", "IC50": 501}, {"smiles": "O=C(NCc1cccc(-c2cccc(CN3CCNCC3)c2)c1)c1cccc(O)c1", "IC50": 2000}, {"smiles": "COc1ccccc1C(=O)NCc1cccc(-c2cccc(CN3CCNCC3)c2)c1", "IC50": 501}, {"smiles": "CN1CCN(Cc2cccc(-c3cccc(CNC(=O)c4ccc5c(c4)OCO5)c3)c2)CC1", "IC50": 501}, {"smiles": "O=C(NCc1cccc(-c2cccc(CN3C[C@@H]4C[C@H]3CN4)c2)c1)c1ccc2c(c1)OCO2", "IC50": 79.4}, {"smiles": "N#Cc1ccccc1C(=O)NCc1cccc(-c2cccc(CN3CCNCC3)c2)c1", "IC50": 316}, {"smiles": "O=C(NCc1cccc(-c2cccc(CN3CCNCC3)c2)c1)c1ccc(C(F)(F)F)cc1", "IC50": 631}, {"smiles": "Nc1cccc(C(=O)NCc2cccc(-c3cccc(CN4CCNCC4)c3)c2)c1", "IC50": 2000}, {"smiles": "O=C(NCc1cccc(-c2cccc(CN3CCNCC3)c2)c1)c1cccc(Oc2ccccc2)c1", "IC50": 1260}, {"smiles": "COC(=O)c1cccc(C(=O)NCc2cccc(-c3cccc(CN4CCNCC4)c3)c2)c1", "IC50": 20}, {"smiles": "O=C(NCc1cccc(-c2cccc(CN3CCNCC3)c2)c1)c1ccccc1Cl", "IC50": 1000}, {"smiles": "O=C(NCc1cccc(-c2cccc(CN3CCNCC3)c2)c1)c1cccc(C(F)(F)F)c1", "IC50": 50.1}, {"smiles": "Cc1cccc(C(=O)NCc2cccc(-c3cccc(CN4CCNCC4)c3)c2)c1", "IC50": 251}, {"smiles": "O=C(NCc1cccc(-c2ccc(F)c(CN3CCNCC3)c2)c1)c1ccc2c(c1)OCO2", "IC50": 200}, {"smiles": "C[C@@H]1CN(Cc2cccc(-c3cccc(CNC(=O)c4ccc5c(c4)OCO5)c3)c2)CCN1", "IC50": 50.1}, {"smiles": "C[C@H]1CN(Cc2ccc(-c3cccc(CNC(=O)c4ccc5c(c4)OCO5)c3)s2)CCN1", "IC50": 501}, {"smiles": "O=C(NCc1cccc(-c2cccc(CN3CCNCC3)c2)c1)Nc1ccc2c(c1)OCO2", "IC50": 7940}, {"smiles": "O=C(Nc1cccc(-c2cccc(CN3CCNCC3)c2)c1)c1ccc2c(c1)OCO2", "IC50": 6310}, {"smiles": "CN(C)c1cccc(C(=O)NCc2cccc(-c3cccc(CN4CCNCC4)c3)c2)c1", "IC50": 200}, {"smiles": "COc1ccc(CN2CCNCC2)cc1-c1cccc(CNC(=O)c2ccc3c(c2)OCO3)c1", "IC50": 1260}, {"smiles": "COc1ccc(CNC(=O)c2ccc3c(c2)OCO3)cc1-c1cccc(CN2CCNCC2)c1", "IC50": 31.6}, {"smiles": "N#Cc1ccc(C(=O)NCc2cccc(-c3cccc(CN4CCNCC4)c3)c2)cc1", "IC50": 79.4}, {"smiles": "O=C(NCc1cccc(-c2cccc(CN3CCNCC3)c2)c1)c1cccc(OC(F)(F)F)c1", "IC50": 501}, {"smiles": "C[C@H]1CN(Cc2cccc(-c3cccc(CNC(=O)c4ccc5c(c4)OCO5)c3)n2)CCN1", "IC50": 39.8}, {"smiles": "O=C(NCc1cccc(-c2cccc(CN3CCNCC3)c2)c1)c1cccc(F)c1", "IC50": 794}, {"smiles": "COc1cccc(C(=O)NCc2cccc(-c3cccc(CN4CCNCC4)c3)c2)c1", "IC50": 79.4}, {"smiles": "CC(=O)N1CCN(Cc2cccc(-c3cccc(CNC(=O)c4ccc5c(c4)OCO5)c3)c2)CC1", "IC50": 3980}, {"smiles": "C[N+]1(Cc2cccc(-c3cccc(CNC(=O)c4ccc5c(c4)OCO5)c3)c2)CCNCC1", "IC50": "> 10000"}, {"smiles": "O=C(NCc1cc(-c2cccc(CN3CCNCC3)c2)ccc1F)c1ccc2c(c1)OCO2", "IC50": 251}, {"smiles": "CC1CN(Cc2cccc(-c3cccc(CNC(=O)c4ccc5c(c4)OCO5)c3)c2)CCN1", "note": "(stereo unspecified)", "IC50": 10}, {"smiles": "CCN1CCN(Cc2cccc(-c3cccc(CNC(=O)c4ccc5c(c4)OCO5)c3)c2)CC1", "IC50": 1580}, {"smiles": "C[N+]1(C)CCN(Cc2cccc(-c3cccc(CNC(=O)c4ccc5c(c4)OCO5)c3)c2)CC1", "IC50": 2510}, {"smiles": "O=C1CN(Cc2cccc(-c3cccc(CNC(=O)c4ccc5c(c4)OCO5)c3)c2)CCN1", "IC50": "> 10000"}, {"smiles": "Cc1ccc(-c2cccc(CN3CCNCC3)c2)cc1CNC(=O)c1ccc2c(c1)OCO2", "IC50": 3160}, {"smiles": "O=C(NCc1cccc(-c2cccc(CN3CCNCC3)c2)c1)c1cccc(Cl)c1", "IC50": 100}, {"smiles": "O=C(NCc1cccc(-c2cccc(CN3CCNCC3)c2)c1)c1ccc(Cl)cc1", "IC50": 316}, {"smiles": "COc1ccc(-c2cccc(CNC(=O)c3ccc4c(c3)OCO4)c2)cc1CN1CCNCC1", "IC50": 316}, {"smiles": "C[C@H]1CN(Cc2cccc(-c3cccc(CNC(=O)c4ccc5c(c4)OCO5)c3)c2)CCN1", "IC50": 5.01}, {"smiles": "O=C(NCc1cccc(-c2cccc(CN3CCOCC3)c2)c1)c1ccc2c(c1)OCO2", "IC50": "> 10000"}, {"smiles": "O=C(NCc1cccc(-c2cccc(CN3CCNCC3)c2)c1)c1ccccc1C(F)(F)F", "IC50": 3980}, {"smiles": "N#Cc1cccc(C(=O)NCc2cccc(-c3cccc(CN4CCNCC4)c3)c2)c1", "IC50": 50.1}, {"smiles": "O=C(NCc1cccc(-c2cccc(CN3CCNCC3)c2)c1F)c1ccc2c(c1)OCO2", "IC50": 2510}, {"smiles": "O=S(=O)(NCc1cccc(-c2cccc(CN3CCNCC3)c2)c1)c1ccc2c(c1)OCO2", "IC50": 251}, {"smiles": "CCc1cccc(C(=O)NCc2cccc(-c3cccc(CN4CCNCC4)c3)c2)c1", "IC50": 316}, {"smiles": "CC(=O)Nc1cccc(C(=O)NCc2cccc(-c3cccc(CN4CCNCC4)c3)c2)c1", "IC50": 200}, {"smiles": "CCOc1cccc(C(=O)NCc2cccc(-c3cccc(CN4CCNCC4)c3)c2)c1", "IC50": 10}, {"smiles": "O=C(NCc1cccc(-c2cccc(C(=O)N3CCNCC3)c2)c1)c1ccc2c(c1)OCO2", "IC50": 5010}, {"smiles": "O=C(NCc1ccc(F)c(-c2cccc(CN3CCNCC3)c2)c1)c1ccc2c(c1)OCO2", "IC50": 6.31}, {"smiles": "Cc1c(CNC(=O)c2ccc3c(c2)OCO3)cccc1-c1cccc(CN2CCNCC2)c1", "IC50": "> 10000"}]}]}
